No end group written: not given here.
Columns and labels:
[1] = system: hippocampal neurons; assay: NMDA- or STS-induced apoptosis in cultured hippocampal neurons (Cell Death ELISA, 11-dUTP, PI staining); format: cell-based, rat; details: 100 μM NMDA + 10 μM glycine 1 h, read at 24 h; APV 50 μM; sucrose 0.4 M; myr-Dyn 100 μM; R2-CT 1 μM with Pep-1
Protocol: (§1) Hippocampi were rapidly removed from embryonic E l 8 Sprague Dawley rats and pooled prior to trituration. Hippocampal cell suspensions were plated onto poly-Dlysine coated culture dishes or glass coverslips and grown in Neurobasal™ media 10 (Invitrogen) for 14 days in vitro (DIV). The media from mature 14 DIV neurons was removed and replaced with 100 μM NMDA plus 10 μM glycine for 1 h at 37° C. prior to restoring neurons to the defined growth media. Twenty four hours after NMDA/glycine application, neurons were processed using cell death assays. NMDA-induced [Ca^2+]i responses were evoked and measured using methods described previously^26.
Apoptosis quantification: NMDA-induced apoptosis was quantified either using a Cell Death Detection Elisa Plus Kit (Roche Applied Sciences), which is based on the in vitro determination of cytoplasmic histone-associated DNA fragments, or using TdT mediated addition of biotinylated 11-dUTP to the free 3′-OH ends of DNA. Absorbance readings for both assays were carried out using a microplate reader.
Propidium Iodide (PI) staining of nuclei: After the induction of apoptosis, cells were fixed with 4% parafonnaldehyde/4% sucrose for 10 min followed by ice cold acetone for 1 min, and then stained with […] PI in Dulbecco's PBS for 30 min. Stained coverslips were mounted onto glass slides and viewed with a Leica fluorescence microscope to identify condensed nuclei. Cells with condensed nuclei were counted as apoptotic and the percentage of apoptotic cells to the total number of cells was calculated to give a semi-quantitative analysis, expressed as percentage of apoptosis.
A short peptide (YKEGYNVYGIE (SEQ ID NO. 2)) corresponding to amino acid residues from 869 to 879 of the C-terminus of GluR2 (R2-CT) was synthesized and incubated with a carrier protein (Pep-1)23 at a ratio of 1:20 in Dulbecco's modified Eagle's medium
(DMEM, Gibco) at 37° C. in a humidified atmosphere containing 5% CO2 for 30 min to allow the formation of R2-CT/Pep-1 complex. Hippocampal neurons (DW 12-14) were then overlaid with the preformed complex to reach a final R2-CT concentration of 1 μM and further incubated for 1 h before experiments commenced. Receptor Trafficking Assays

[2] = system: Akt; assay: Akt phosphorylation at serine 473 (Western blot); format: cell-based, rat
Protocol: Immunoprecipitation and Western blotting were carried out essentially as previously reported.^14 Proteins from cerebral cortex, hippocampal slices, cultured hippocampal neurons or transfected HEK293 cells were solubilized in RIPA buffer containing either 1% SDS (plus 5 min boiling; denaturing conditions) or 1% DOC (non-denaturing conditions). For immunoprecipitation, 500 μg of protein from these tissue lysates was incubated with their respective antibodies in 500 μl of RIPA buffer for 4 h at 4° C. Protein A-sepharose was added to the mixture and incubated for an additional 2 h. The complex was isolated by centrifugation and washed three times. Proteins eluted from the sepharose beads were subjected to SDS-PAGE and immunoblotting using their respective antibodies. For sequential re-probing of the same blots, the membranes were stripped of the initial primary and secondary antibodies and subjected to immunoblotting with another antibody. Blots were developed using enhanced chemiluminescence detection (Amersham). Band intensities were quantified using Scion Image PC software.
The serine/threonine kinase Akt/PKB has been implicated in protecting neurons from apoptotic cell death^17 and inhibition of this kinase activity has been suspected to be involved in NMDA receptor-mediated apoptosis^18. […]

[3] = system: transferrin receptor; assay: Transferrin receptor endocytosis assay; format: cell-based, rat; details: fluorescently-labeled transferrin 30 min; sucrose 0.4 M; R2-CT+Pep-1 one hour prior to and during
Protocol: Transferrin receptor endocytosis assay: To assess the effect of endocytosis inhibitors on transferrin receptor endocytosis, hippocampal neurons were incubated with […] Alexa-A488 conjugated transferrin (Molecular Probes) for 30 min at 37° C. in the presence or absence of endocytosis inhibitors. Internalized receptors were then viewed with a Leica fluorescence microscope.

[4] = molecular target: T1, NMDA receptor channel (Rattus norvegicus, UniProt P35439); assay: NMDA-evoked [Ca2+]i responses (Fura-2); format: cell-based; details: NMDA 100 μM, 500 ms puffs; sucrose 400 mM in bath
T1 construct: we loaded hippocampal neurons with the intracellular Ca2+ dye, Fura-2; endogenous in cells; host or cells: primary rat hippocampal neurons (E18 Sprague Dawley)
Protocol: as §1

[5] = system: rats; details: IV 60 min prior to test session; versus saline
Protocol: A. Rats maintained on a restricted feeding schedule were trained to lever-press for food pellets (45 mg) on a fixed-ratio 2 (FR2) schedule during 2-hour test sessions. Rats received IV injections of saline, GluR2-3A, or GluR2-3Y, in a counterbalanced order, 60 min prior to the test session. […] B. Rats were first trained to self-administer d-amphetamine (0.2 mg/infusion) via a jugular catheter on an FR2 schedule of reinforcement. Once responding in the 3 hour test sessions had stabilized, the rats were then trained on a Progressive Ratio Schedule in which successively more responses were required to obtain each successive reinforcement. […] Once stable Break point values were established, rats received IV injections of saline, GluR2-3A, or GluR2-3Y, in a counterbalanced order, 60 min prior to the test session.

[6] = system: Sprague-Dawley rats; assay: Transient focal ischemia model (MCA occlusion), TUNEL staining and neurological exam; format: in vivo, rat; details: 10 min prior to MCA occlusion; 3 nmoles/g
Protocol: The procedure was performed essentially as described previously (70). Briefly, adult male Sprague-Dawley rats between 280 and 320 g (20 h fasted weight) were anesthetized with an inhaled mixture of 4% isofluorane, in 30% oxygen balanced nitrous oxide, and maintained on 1.5% isofluorane. Bronchial secretions were minimized by administering 0.5 mg/kg of atropine intraperitoneally. […] The experimenter was blinded to the identity of the treatment groups for all surgeries and down-stream experiments. Under a dissection microscope, the common carotid artery (CCA), external carotid artery (ECA), and internal carotid artery (ICA) were exposed and dissected. […] Rectal temperature, and blood pressure measured with a tail cuff were measured before treatment, 15 min post injection, 50 min post injection, and 15 min post MCA occlusion. The plasma pH, O2, and CO2 were measured with a Rapidlab™ 348 blood gas analyzer (Bayer Diagnostics) in some animals to ensure that the gas flow rates used were appropriate and yielded reproducible blood gases. […]
At day 1 post MCAo rats were anesthetized with 1.5 mL of 25% urethane and were perfused with 100 mL of 0.9% saline followed by 120 mLs of 4% paraformaldehyde in PBS. […] The slices were scored for number of cells that stained positive for TMR-TUNEL per field of view at 10× magnification. […]

[7] = system: CA1 neurons in hippocampal slices; assay: Insulin-induced depression of AMPA receptor-mediated EPSCs, whole-cell recording of CA1 neurons; format: cell-based, rat; details: 100 μg/ml in recording pipette; insulin 0.5 μM in bath
Protocol: GST-GluR23Y and GST-GluR23A were constructed by subcloning corresponding PCR fragments into pGEX 4T-1 vectors. GST fusion proteins were expressed in DH5α E. coli and purified from bacterial lysates according to the manufacturer's protocol (Pharmacia). Products were dialyzed in PBS and concentrated using Microcon-10 columns (Amicon) for intracellular application during whole-cell recordings.
Hippocampal slices (400 μm thickness) were prepared from Sprague-Dawley rats aged 16-26 postnatal days and perfused at room temperature with artificial cerebrospinal fluid containing (mM): 126 NaCl, 26 NaHCO3, 10 glucose, 3 KCl, 1.2 KH2PO4, 1 MgCl2, and 1 CaCl2, saturated with 95% O2/5% CO2^14. The recording pipettes (4-5 MO) were filled with solution containing (mM): 135 CsCl, 10 HEPES, 5 QX-314, 4 Mg-ATP, 2 MgCl2, 0.5 EGTA, 0.2 GTP and 0.1 CaCl2, pH 7.4, 310 mOsm. Whole-cell recording of CA1 neurons and the induction of LFS-LTD were performed as previously described.^14 […]

[8] = molecular target: pp60 c-Src (Homo sapiens, UniProt P12931); assay: In vitro kinase assay with active recombinant Src; format: biochemical; details: GST fusion protein as substrate
Source text: FIGS. 7 A-D. Insulin increases phosphorylation of tyrosine residues within the GluR2 carboxyl terminal (CT) region. A. In vitro tyrosine phosphorylation of the GluR2 CT. GST fusion proteins of the GluR1 CT (GST-GluR1CT), the GluR2 CT (GST-GluR2CT), residues 869-876 (YKEGYNVYG (SEQ ID NO. 4)) of the GluR2 CT (GST-GluR23Y), which contains a cluster of three tyrosine residues (Y869, Y873, and Y876) and the same amino acid stretch of the GluR2 CT with its tyrosine residues replaced by alanines (GST-GluR23A), along with the GST back bone (GST) as control, were incubated in the absence (−) or presence (+) of active recombinant pp60 c-Src. Phosphorylation products were immunoblotted using an anti-phosphotyrosine antibody (top panel). […] B. Expression levels of HA-GluR2 and HA-GluR23Y-3A (where tyrosines 869, 873 and 876 were mutated to alanines) 48 h after transient transfection into HEK293 cells were determined by a cell ELISA assay using permeabilized cells. C. HEK293 cells transiently transfected with HA-GluR1, HA-GluR2 or HA-GluR23Y-3A, along with empty vector (mock transfection) as control. Forty-eight hours later, the cells were treated with or without 0.5 μM insulin for 10 min. The lysates were then subjected to immunoprecipitation with an anti-HA antibody under denaturing conditions and immunoblotting with an anti-phosphotyrosine antibody (Top blot; IB: PY). […]

OC[C@H]1O[C@@](CO)(O[C@H]2O[C@H](CO)[C@@H](O)[C@H](O)[C@H]2O)[C@@H](O)[C@@H]1O [sucrose]
NMDA-induced apoptosis [1]: dramatically reduced
NMDA-induced reduction in S473 phosphorylated Akt ([2]; hypertonic sucrose): largely prevented
STS-induced reduction of Akt phosphorylation ([2]; sucrose treatment): had no effect on the reduction of Akt phosphorylation following STS treatment
transferrin receptor endocytosis [3]: eliminated
NMDA-evoked [Ca2+]i responses [4]: did not significantly alter NMDA-evoked [Ca^2+]i responses

YGRKKRRQRRRAKEGANVAGIE [Tat-GluR2-3A, YGRKKRRQRRR-AKEGANVAGIE, reference compound]
Break Point measures for drug-reward [5]: no significant differences in the Break Point measures for drug-reward
total number of responses for food reward [5]: no significant differences in total number of responses for food reward
mean arterial blood pressure (MABP) versus saline [6]: significantly lower mean arterial blood pressure

GSTAKEGANVAG [GST-GluR23A, mutant counterpart with tyrosines replaced by alanines, control, reference compound]
insulin-induced EPSC depression [7]: had no effect
tyrosine phosphorylation by recombinant Src kinase [8]: abolished

N[C@@H](CCCP(=O)(O)O)C(=O)O [APV, reference compound]
NMDA-induced apoptosis [1]: fully blocked
